Assay results: PubChem BioAssay (NCI)
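48-hour exposure; five concentrations; linearly interpolated endpoints. GI50: concentration for 50% inhibition of growth. TGI denotes the concentration required for complete inhibition of growth.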

Tests used:
Assay in all cases: NCI-60 cell line screen, 48 h
NCI-H522 lung = tested on: NCI-H522 lung
MCF7 breast = tested on: MCF7 breast
DU-145 prostate = tested on: DU-145 prostate
COLO 205 colon = tested on: COLO 205 colon
SN12C renal = tested on: SN12C renal
MDA-MB-231 breast = tested on: MDA-MB-231 breast
HT29 colon = tested on: HT29 colon
SK-MEL-5 melanoma = tested on: SK-MEL-5 melanoma
SR leukemia = tested on: SR leukemia
LOX IMVI melanoma = tested on: LOX IMVI melanoma

Row | SMILES | TGI (NCI-H522 lung) [µM] | TGI (MCF7 breast) [µM] | TGI (DU-145 prostate) [µM] | TGI (COLO 205 colon) [µM] | TGI (SN12C renal) [µM] | TGI (MDA-MB-231 breast) [µM] | TGI (HT29 colon) [µM] | TGI (SK-MEL-5 melanoma) [µM] | TGI (SR leukemia) [µM] | TGI (LOX IMVI melanoma) [µM] | GI50 (NCI-H522 lung) [µM] | GI50 (MCF7 breast) [µM] | GI50 (DU-145 prostate) [µM] | GI50 (COLO 205 colon) [µM] | GI50 (SN12C renal) [µM] | GI50 (MDA-MB-231 breast) [µM] | GI50 (HT29 colon) [µM] | GI50 (SK-MEL-5 melanoma) [µM] | GI50 (SR leukemia) [µM] | GI50 (LOX IMVI melanoma) [µM]
1 | Nc1ccc2c(c1)NCCN2 | > 100 | > 100 | > 100 | > 100 | > 100 | > 100 | > 100 | 46.8 | > 100 | > 100 | – | – | – | – | – | – | – | – | – | –
2 | NNc1cccc(/C=C/c2ccccc2)cc1=O | > 100 | > 100 | > 100 | > 100 | > 100 | > 100 | > 100 | > 100 | > 100 | > 100 | 8.18 | 8.32 | 7.04 | 7.76 | 15.2 | 4.73 | 10.7 | 11.7 | 3.85 | 5.07
3 | CC(C)c1ccc(/C(C(=O)O)=C(\O)C(=O)O)cc1 | > 100 | > 100 | > 100 | > 100 | > 100 | > 100 | > 100 | > 100 | > 100 | > 100 | – | – | – | – | – | – | – | – | – | –
4 | COCCOC(=O)NC(=O)Nc1ccc(/C(=N/O)c2ccc(Cl)cc2)cc1 | 5.58 | 37.9 | 20.4 | 2.28 | 59.3 | 11 | 15.3 | 2.85 | 10.8 | 23.7 | 0.123 | 0.0989 | 0.121 | 0.14 | 0.157 | 0.166 | 0.108 | 0.0817 | 0.0546 | 0.144
5 | CCOC(=O)C(CO)c1nc2c([nH]c1=O)c(=O)n(C)c(=O)n2C (stereo not given) | > 100 | > 100 | > 100 | > 100 | > 100 | > 100 | > 100 | > 100 | > 100 | > 100 | – | – | – | – | – | – | – | – | – | –
6 | Cc1nc2sc(C(=O)Nc3cccc4ccccc34)c(N)c2cc1C(=O)c1ccccc1 | > 50 | > 50 | > 50 | > 50 | > 50 | > 50 | > 50 | 12.4 | > 50 | > 50 | 1.52 | 1.53 | 1.94 | 1.65 | 2.98 | 2.19 | 1.81 | 1.92 | 0.632 | 2.56
7 | C[C@]1(CO)[C@H]2CC[C@@]34C=C[C@@](CO)(CC[C@H]3[C@]2(C)CC[C@H]1O)C4 | > 100 | > 100 | > 100 | > 100 | > 100 | > 100 | > 100 | 32.3 | > 100 | > 100 | – | – | – | – | – | – | – | – | – | –
8 | COc1ccc(/C=C/c2nc(NCCCN(C)C)c3ccccc3n2)cc1 | 3.66 | 3.23 | 27 | 3.3 | 29.3 | 5.24 | 3.13 | 3.27 | 4.2 | 3.42 | 1.83 | 1.72 | 13.9 | 1.8 | 11.8 | 1.99 | 1.61 | 1.71 | 1.86 | 1.83
9 | CCCCNN | > 100 | > 100 | > 100 | > 100 | > 100 | > 100 | > 100 | > 100 | > 100 | > 100 | – | – | – | – | – | – | – | – | – | –
10 | COc1cc(/C=C\[N+](=O)[O-])ccc1OCc1ccccc1 | 6.62 | 3.27 | 3.52 | 3.37 | 8.42 | 5.55 | 4 | 3.05 | 5.27 | 2.3 | 2.04 | 1.44 | 1.8 | 1.67 | 2.77 | 1.85 | 1.94 | 1.4 | 1.46 | 1
11 | CCCCCCCCCCN(CCCCCCCCCC)CC(=O)c1ccc2cc(Br)c3ccccc3c2c1 | 3.27 | 3.25 | 10.3 | 3.16 | 3.33 | 3.26 | 2.77 | 3.28 | 4.19 | 3.32 | 1.56 | 1.8 | 3.69 | 1.66 | 1.6 | 1.67 | 1.32 | 1.74 | 1.3 | 1.75
